In data set [1] the target is T1, human EAAT3 (Homo sapiens, UniProt P43005).
T1 construct: expressed in transfected cells
T1 sequence (P43005 1-524): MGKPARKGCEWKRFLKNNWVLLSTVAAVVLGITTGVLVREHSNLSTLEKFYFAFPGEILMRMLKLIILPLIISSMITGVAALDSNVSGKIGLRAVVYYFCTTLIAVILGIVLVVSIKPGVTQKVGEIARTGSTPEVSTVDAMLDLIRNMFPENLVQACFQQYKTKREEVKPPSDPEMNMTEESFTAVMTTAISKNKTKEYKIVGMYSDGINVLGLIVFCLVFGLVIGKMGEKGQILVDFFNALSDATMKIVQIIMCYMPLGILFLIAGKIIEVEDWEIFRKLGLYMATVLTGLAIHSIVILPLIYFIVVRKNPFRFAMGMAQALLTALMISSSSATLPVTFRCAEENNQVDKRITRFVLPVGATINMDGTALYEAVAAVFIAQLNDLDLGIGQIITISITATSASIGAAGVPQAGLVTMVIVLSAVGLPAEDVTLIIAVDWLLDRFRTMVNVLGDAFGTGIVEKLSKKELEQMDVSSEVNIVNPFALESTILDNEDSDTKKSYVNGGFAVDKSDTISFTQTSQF
Put plainly: FLIPR Membrane Potential (FMP) assay, antagonist potency at human EAAT3. As to conditions: HEK-293 cells stably expressing human EAAT3; L-glutamate as agonist at EC80; antagonist applied 15 min before agonist; Kb by Cheng-Prusoff from IC50. Type of data set: cell-based. The procedure: The FLIPR Membrane Potential (FMP) Assay
HEK-293 cells stably expressing human EAAT3 were seeded at 55 000 cells/well in growth medium (DMEM glutamate free (Invitrogen 11960-044), 1% Pen Strep (10 ml/1 GIBCO BRL N°15140-023), 10% FCS non dialysed heat inactivated, 5 mg/l puromycin) in poly-D-lysine treated 96-well black microtiter plates with clear-bottom. After 24 h, the growth medium was removed and 100 μl/well of Krebs buffer (140 mM NaCl, 4.7 mM KCl, 2.5 mM CaCl2, 1.2 mM MgCl2, 11 mM HEPES, 10 mM D-glucose, pH=7.4) added. The cells were then loaded by adding 100 μl/well FMP assay dye (FLIPR Membrane Potential assay reagent, Molecular Devices). The 96-well plates were then incubated at 37° C. for 1 h. The depolarization of the cells will cause more dye to enter in the cells, where it will bind to intracellular proteins and lipids and cause an increase in the fluorescence signal. Antagonist potency at human EAAT3 was determined by using L-glutamate as agonist at a concentration which gives 80% of the maximum response. The antagonists were applied 15 min before the application of the agonist L-glutamate. The assays were performed at room temperature and measurements done by using a Fluorometric Imaging Plate Reader (FLIPR, Molecular Devices) and filter #2. Responses were measured as peak increase in fluorescence minus basal (i.e. fluorescence without addition of L-glutamate). Kb was determined using the Cheng-Prusoff equation Kb=IC50/[1+(A/EC50)], where IC50 is the concentration of the antagonist producing 50% inhibition, A is the concentration of the agonist against which the IC50 is being determined (at EC80) and EC50 is the concentration of the agonist producing 50% […].

Consider 24 compounds from patent US10029989B2, “Imidazole derivatives” (Hoffmann-La Roche Inc., priority 2015, dated 2018).

Usually Kb stands for the affinity of an antagonist, worked out from how it opposes an agonist. Lower therefore signals higher antagonist affinity. By melting point is commonly meant the temperature, or range, at which the solid turns liquid. Regarding `CC(C)c1nccn1-c1cc(C(=O)NC2(C)CCS(=O)(=O)C2)cc(-c2ccc(Cl)cc2)c1` (racemic) [Example 38, (RS)-3-(4-Chlorophenyl)-N-(3-methyl-1,1-dioxothiolan-3-yl)-5-(2-propan-2-ylimidazol-1-yl)-benzamide], the melting point amounted to 112 °C. In data set [1], this compound returned a Kb of 220 nM.
The corresponding values for `CC1(NC(=O)c2cc(-c3ccc(Cl)cc3)cc(-n3ccnc3C3CC3)c2)CCS(=O)(=O)C1` (racemic) [Example 39, (RS)-3-(4-chlorophenyl)-5-(2-cyclopropylimidazol-1-yl)-N-(3-methyl-1,1-dioxothiolan-3-yl)-benzamide] are 115 °C and 180 nM.
On to `CC(C)c1nccn1-c1cc(C(=O)NC(C)(C)C)cc(-c2ccc(Cl)cc2)c1` [Example 1, N-tert-Butyl-3-(4-chlorophenyl)-5-(2-propan-2-ylimidazol-1-yl)-benzamide], for which the Kb in data set [1] came out at 180 nM.
`CC(C)(C)NC(=O)c1cc(-c2ccc(Cl)cc2)cc(-n2ccnc2)c1` [Example 2, N-tert-Butyl-3-(4-chlorophenyl)-5-imidazol-1-ylbenzamide] returned a Kb in data set [1] of 230 nM.
`Cc1nccn1-c1cc(C(=O)NC(C)(C)C)cc(-c2ccc(Cl)cc2)c1` [Example 3, N-tert-Butyl-3-(4-chlorophenyl)-5-(2-methylimidazol-1-yl)-benzamide] yielded a melting point of 220 °C. For the same compound, in data set [1], the Kb came out at 190 nM.
In data set [1], `CCc1nccn1-c1cc(C(=O)NC(C)(C)C)cc(-c2ccc(Cl)cc2)c1` [Example 4, N-tert-Butyl-3-(4-chlorophenyl)-5-(2-ethylimidazol-1-yl)-benzamide] gave a Kb of 180 nM.
Turning to `CC(C)(C)NC(=O)c1cc(-c2ccc(Cl)cc2)cc(-n2ccnc2C2CC2)c1` [Example 5, N-tert-Butyl-3-(4-chlorophenyl)-5-(2-cyclopropylimidazol-1-yl)-benzamide], the Kb in data set [1] was 120 nM.
Regarding `CC(C)c1nccn1-c1cc(C(=O)NC(C)(C)C)cc(-c2ccc(F)cc2)c1` [Example 6, N-tert-Butyl-3-(4-fluorophenyl)-5-(2-propan-2-ylimidazol-1-yl)-benzamide], the melting point was 224 °C. The compound also came in with a Kb in data set [1] of 76 nM.
For `CC(C)c1nccn1-c1cc(C(=O)NC(C)(C)C(F)(F)F)cc(-c2ccc(Cl)cc2)c1` [Example 7, 3-(4-Chlorophenyl)-5-(2-propan-2-ylimidazol-1-yl)-N-(1,1,1-trifluoro-2-methylpropan-2-yl)-benzamide] the same measures were 115.5 °C and 200 nM.
The corresponding values for `CC(C)c1nccn1-c1cc(C(=O)NC(C)(C)C2CC2)cc(-c2ccc(Cl)cc2)c1` [Example 8, 3-(4-Chlorophenyl)-N-(2-cyclopropylpropan-2-yl)-5-(2-propan-2-ylimidazol-1-yl)-benzamide] are 189 °C and 230 nM.
For `CCc1nccn1-c1cc(C(=O)NC(C)(C)C2CC2)cc(-c2ccc(Cl)cc2)c1` [Example 9, 3-(4-Chlorophenyl)-N-(2-cyclopropylpropan-2-yl)-5-(2-ethylimidazol-1-yl)-benzamide] the same measures were 183 °C and 220 nM.
`CCc1nccn1-c1cc(C(=O)NC(C)(C)C)cc(-c2ccc(F)cc2)c1` [Example 10, N-tert-Butyl-3-(2-ethylimidazol-1-yl)-5-(4-fluorophenyl)-benzamide] gave a melting point of 238 °C. This compound also displayed a Kb in data set [1] of 110 nM.
The corresponding values for `Cc1nccn1-c1cc(C(=O)NC(C)(C)C2CC2)cc(-c2ccc(Cl)cc2)c1` [Example 11, 3-(4-Chlorophenyl)-N-(2-cyclopropylpropan-2-yl)-5-(2-methylimidazol-1-yl)-benzamide] are 180 °C and 170 nM.
For `Cc1nccn1-c1cc(C(=O)NC(C)(C)C)cc(-c2ccc(F)cc2)c1` [Example 12, N-tert-Butyl-3-(4-fluorophenyl)-5-(2-methylimidazol-1-yl)-benzamide] the same measures were 208 °C and 130 nM.
For `CC(C)(NC(=O)c1cc(-c2ccc(Cl)cc2)cc(-n2ccnc2C2CC2)c1)C1CC1` [Example 13, 3-(4-Chlorophenyl)-5-(2-cyclopropylimidazol-1-yl)-N-(2-cyclopropyl-propan-2-yl)-benzamide] the same measures were 90 °C and 310 nM.
Compound `Cc1nccn1-c1cc(C(=O)NC(C)(C)C(F)(F)F)cc(-c2ccc(Cl)cc2)c1` [Example 14, 3-(4-Chlorophenyl)-5-(2-methylimidazol-1-yl)-N-(1,1,1-trifluoro-2-methylpropan-2-yl)-benzamide] displayed a melting point of 199.5 °C. Further, the Kb in data set [1] stood at 130 nM.
The compound `CC(C)(NC(=O)c1cc(-c2ccc(Cl)cc2)cc(-n2ccnc2C2CC2)c1)C(F)(F)F` [Example 15, 3-(4-Chlorophenyl)-5-(2-cyclopropylimidazol-1-yl)-N-(1,1,1-trifluoro-2-methylpropan-2-yl)-benzamide] showed a melting point of 101.5 °C. This compound also had a Kb in data set [1] of 150 nM.
For `CC(C)(C)NC(=O)c1cc(-c2ccc(F)cc2)cc(-n2ccnc2C2CC2)c1` [Example 16, N-tert-Butyl-3-(2-cyclopropylimidazol-1-yl)-5-(4-fluorophenyl)-benzamide] the same measures were 250.5 °C and 130 nM.
For `CC(C)c1nccn1-c1cc(C(=O)NC(C)(C)C2CC2)cc(-c2ccc(F)cc2)c1` [Example 17, N-(2-Cyclopropylpropan-2-yl)-3-(4-fluorophenyl)-5-(2-propan-2-ylimidazol-1-yl)-benzamide] the same measures were 80 °C and 120 nM.
On to `CCc1nccn1-c1cc(C(=O)NC(C)(C)C2CC2)cc(-c2ccc(F)cc2)c1` [Example 18, N-(2-Cyclopropylpropan-2-yl)-3-(2-ethylimidazol-1-yl)-5-(4-fluorophenyl)-benzamide], for which the melting point turned out to be 70 °C. In addition, in data set [1], the Kb was found to be 170 nM.
For `Cc1nccn1-c1cc(C(=O)NC(C)(C)C2CC2)cc(-c2ccc(F)cc2)c1` [Example 19, N-(2-Cyclopropylpropan-2-yl)-3-(4-fluorophenyl)-5-(2-methylimidazol-1-yl)-benzamide] the same measures were 184 °C and 290 nM.
The corresponding values for `CC(C)(NC(=O)c1cc(-c2ccc(F)cc2)cc(-n2ccnc2C2CC2)c1)C1CC1` [Example 20, 3-(2-Cyclopropylimidazol-1-yl)-N-(2-cyclopropylpropan-2-yl)-5-(4-fluorophenyl)-benzamide] are 83 °C and 33 nM.
In turn, `CC(C)c1nccn1-c1cc(C(=O)NC(C)(C)C)cc(-c2ccc(C(F)(F)F)cc2)c1` [Example 21, N-tert-Butyl-3-(2-propan-2-ylimidazol-1-yl)-5-[4-(trifluoromethyl)-phenyl]-benzamide] showed a melting point of 96.5 °C. The compound also showed a Kb in data set [1] of 180 nM.
For `Cc1ccc(-c2cc(C(=O)NC(C)(C)C)cc(-n3ccnc3C(C)C)c2)cc1F` [Example 22, N-tert-Butyl-3-(3-fluoro-4-methylphenyl)-5-(2-propan-2-ylimidazol-1-yl)-benzamide] the same measures were 98 °C and 120 nM.
